For 22 compounds, IC50 results are on record in patent US11878975B2, “Substituted indole compounds useful as TLR inhibitors” (BRISTOL-MYERS SQUIBB COMPANY, priority 2017, dated 2024).

Common to all, as to assay type: cell-based
The target in one test is T1, human TLR9 (Homo sapiens, UniProt Q9NR96).
T1 construct: host or cells: HEK-Blue cells
T1 sequence (Q9NR96 26-1032): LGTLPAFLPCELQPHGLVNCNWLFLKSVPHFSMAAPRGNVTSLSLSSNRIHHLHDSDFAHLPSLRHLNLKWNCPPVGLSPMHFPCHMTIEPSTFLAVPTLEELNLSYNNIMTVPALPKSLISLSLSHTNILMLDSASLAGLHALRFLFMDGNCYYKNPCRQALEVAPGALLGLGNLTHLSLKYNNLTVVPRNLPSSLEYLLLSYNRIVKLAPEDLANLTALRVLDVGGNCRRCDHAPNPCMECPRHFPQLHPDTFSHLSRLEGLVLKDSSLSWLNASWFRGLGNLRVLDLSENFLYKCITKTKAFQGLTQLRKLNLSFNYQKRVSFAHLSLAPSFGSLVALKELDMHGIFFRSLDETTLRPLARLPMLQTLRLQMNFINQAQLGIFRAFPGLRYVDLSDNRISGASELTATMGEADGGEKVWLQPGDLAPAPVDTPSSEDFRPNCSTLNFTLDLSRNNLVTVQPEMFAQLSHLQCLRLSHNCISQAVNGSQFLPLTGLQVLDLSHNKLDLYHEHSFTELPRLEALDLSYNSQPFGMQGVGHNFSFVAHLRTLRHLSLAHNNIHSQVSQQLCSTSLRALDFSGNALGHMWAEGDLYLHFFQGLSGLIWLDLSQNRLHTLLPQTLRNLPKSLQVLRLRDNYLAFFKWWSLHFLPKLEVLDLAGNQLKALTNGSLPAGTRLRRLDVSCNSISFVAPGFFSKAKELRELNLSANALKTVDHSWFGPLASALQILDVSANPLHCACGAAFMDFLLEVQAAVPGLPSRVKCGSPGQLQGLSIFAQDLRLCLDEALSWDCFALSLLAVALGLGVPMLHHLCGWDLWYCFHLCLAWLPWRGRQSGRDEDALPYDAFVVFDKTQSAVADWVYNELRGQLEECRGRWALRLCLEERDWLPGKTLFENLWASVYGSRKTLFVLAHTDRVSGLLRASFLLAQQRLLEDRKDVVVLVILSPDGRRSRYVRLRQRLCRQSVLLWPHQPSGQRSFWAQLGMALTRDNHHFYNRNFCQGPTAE
The test is described as follows: TLR9 inhibition reporter assay (HEK-Blue cells, SEAP reporter, ODN2006 stimulation). Conditions: HEK-Blue cells overexpressing human TLR9, SEAP reporter, ODN2006 5 nM. The procedure, abridged:
(§1)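 HEK-Blue cells with NF-κB/AP-1-driven SEAP reporter, pre-treated 30 min at room temperature with compound (0.05 nM-50 μM). Stimulants: gardiquimod 7.5 μM (TLR7), R848 15.9 μM (TLR8) or ODN2006 5 nM (TLR9). SEAP measured after 22 h at 37° C.; percent inhibition versus agonist-plus-DMSO and known-inhibitor wells.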

Another test addresses T2, human TLR7 (Homo sapiens, UniProt Q9NYK1).
T2 construct: host or cells: HEK-Blue cells
T2 sequence (Q9NYK1 27-1049): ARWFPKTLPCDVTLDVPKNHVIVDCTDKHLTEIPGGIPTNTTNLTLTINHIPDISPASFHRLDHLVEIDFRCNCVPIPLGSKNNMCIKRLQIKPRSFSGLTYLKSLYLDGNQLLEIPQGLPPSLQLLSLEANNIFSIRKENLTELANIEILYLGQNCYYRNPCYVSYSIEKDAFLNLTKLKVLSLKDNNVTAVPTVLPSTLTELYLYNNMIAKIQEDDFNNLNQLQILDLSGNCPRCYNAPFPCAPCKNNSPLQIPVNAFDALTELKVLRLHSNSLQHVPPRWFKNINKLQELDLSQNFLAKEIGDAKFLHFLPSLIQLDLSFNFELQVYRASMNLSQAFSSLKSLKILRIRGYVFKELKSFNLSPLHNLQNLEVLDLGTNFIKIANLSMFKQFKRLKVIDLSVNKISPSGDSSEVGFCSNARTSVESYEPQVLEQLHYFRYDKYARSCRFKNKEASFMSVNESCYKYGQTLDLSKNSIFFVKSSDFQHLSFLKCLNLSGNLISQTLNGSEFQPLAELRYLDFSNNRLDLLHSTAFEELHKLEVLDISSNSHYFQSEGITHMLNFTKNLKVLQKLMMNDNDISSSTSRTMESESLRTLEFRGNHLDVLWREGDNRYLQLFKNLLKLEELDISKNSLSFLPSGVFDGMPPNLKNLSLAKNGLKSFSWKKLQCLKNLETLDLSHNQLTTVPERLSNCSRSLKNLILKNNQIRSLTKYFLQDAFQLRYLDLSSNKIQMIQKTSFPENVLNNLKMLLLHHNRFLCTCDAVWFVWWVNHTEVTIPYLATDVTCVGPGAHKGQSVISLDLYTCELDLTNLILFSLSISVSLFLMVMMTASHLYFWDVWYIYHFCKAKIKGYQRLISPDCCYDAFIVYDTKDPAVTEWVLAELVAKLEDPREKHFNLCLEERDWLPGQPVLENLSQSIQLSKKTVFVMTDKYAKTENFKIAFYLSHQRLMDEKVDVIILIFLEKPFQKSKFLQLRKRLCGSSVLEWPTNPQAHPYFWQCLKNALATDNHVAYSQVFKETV
Nature of the test: TLR7 inhibition reporter assay (HEK-Blue cells, SEAP reporter, gardiquimod stimulation). Conditions: HEK-Blue cells overexpressing human TLR7, SEAP reporter, gardiquimod 7.5 μM. In a few lines:
as §1

A further test has as its target T3, human TLR8 (Homo sapiens, UniProt Q9NR97).
T3 construct: host or cells: HEK-Blue cells
T3 sequence (Q9NR97 27-1041): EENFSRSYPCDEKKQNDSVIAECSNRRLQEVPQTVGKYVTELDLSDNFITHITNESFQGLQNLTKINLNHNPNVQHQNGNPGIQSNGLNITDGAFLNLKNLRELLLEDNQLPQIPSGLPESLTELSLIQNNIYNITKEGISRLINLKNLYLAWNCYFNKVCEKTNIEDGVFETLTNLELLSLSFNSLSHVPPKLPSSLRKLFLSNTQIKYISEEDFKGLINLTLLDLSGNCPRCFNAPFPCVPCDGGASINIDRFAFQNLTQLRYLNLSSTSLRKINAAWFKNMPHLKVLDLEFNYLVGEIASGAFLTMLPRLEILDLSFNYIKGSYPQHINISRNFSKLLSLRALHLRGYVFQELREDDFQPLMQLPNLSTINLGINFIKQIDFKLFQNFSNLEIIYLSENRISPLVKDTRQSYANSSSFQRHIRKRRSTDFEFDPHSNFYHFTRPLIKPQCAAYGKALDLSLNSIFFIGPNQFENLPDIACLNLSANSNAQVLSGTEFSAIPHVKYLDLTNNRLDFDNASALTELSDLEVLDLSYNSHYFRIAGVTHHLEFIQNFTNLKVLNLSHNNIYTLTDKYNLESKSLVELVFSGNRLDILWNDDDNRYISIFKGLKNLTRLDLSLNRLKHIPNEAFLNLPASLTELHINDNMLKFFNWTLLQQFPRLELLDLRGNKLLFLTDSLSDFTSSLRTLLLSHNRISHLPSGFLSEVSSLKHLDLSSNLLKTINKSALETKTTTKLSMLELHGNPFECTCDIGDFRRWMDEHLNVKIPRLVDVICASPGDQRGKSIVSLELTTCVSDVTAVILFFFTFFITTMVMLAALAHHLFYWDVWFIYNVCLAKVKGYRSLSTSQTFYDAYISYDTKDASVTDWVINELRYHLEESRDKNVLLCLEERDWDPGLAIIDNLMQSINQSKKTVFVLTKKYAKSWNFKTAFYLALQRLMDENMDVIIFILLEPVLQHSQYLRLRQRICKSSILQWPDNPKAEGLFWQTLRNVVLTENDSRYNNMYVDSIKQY
The test is described as follows: TLR8 inhibition reporter assay (HEK-Blue cells, SEAP reporter, R848 stimulation). As to conditions: HEK-Blue cells overexpressing human TLR8, SEAP reporter, R848 15.9 μM. The procedure, abridged:
as §1

For the compound `CC(C)c1c(-c2ccnc3[nH]ncc23)[nH]c2ccc(C3CCCNCC3)cc12` (stereo not drawn) [Example 501], the IC50 worked out at 739 nM on human TLR9, 12 nM against human TLR7 and 4.3 nM on human TLR8.

Consider `CC(C)c1c(-c2ccnc3[nH]ncc23)[nH]c2ccc(C3CCC(OC4CCNCC4)CC3)cc12` (stereo not drawn) [Example 502], for which the IC50 at human TLR9 was 313 nM; at human TLR7, 71 nM; at human TLR8, 23 nM.

As for `Cc1cc(-c2[nH]c3ccc(C4CCC(OC5CCNCC5)CC4)cc3c2C(C)C)ccn1` (stereo not drawn) [Example 503], the results for the IC50 at human TLR9, against human TLR7 and against human TLR8 were 2860 nM, 28 nM and 44 nM, respectively.

Turning to `CC(C)c1c(-c2ccnc3[nH]ncc23)[nH]c2ccc(C3CCC(Oc4ccncc4)CC3)cc12` (stereo not drawn) [Example 504], the IC50 against human TLR9 turned out to be 5010 nM; on human TLR7, 98 nM; against human TLR8 it was 162 nM.

For `CC(C)c1c(-c2ccnc3[nH]ncc23)[nH]c2ccc(C3CCC(Oc4ccncc4)CC3)cc12` (stereo not drawn) [Example 505], the IC50 at human TLR9 came out at 13900 nM; at human TLR7, 347 nM; at human TLR8 it was 774 nM.

For the compound `Cc1c(-c2[nH]c3ccc(C4CC5CNCC5C4)cc3c2C(C)C)cn2ncnc2c1C` (stereo not drawn) [Example 506], the IC50 on human TLR9 amounted to 6590 nM; at human TLR7, 1 nM; at human TLR8, 21 nM.

Take `Cc1c(-c2[nH]c3ccc(C4CC5CN(CC(=O)N(C)C)CC5C4)cc3c2C(C)C)cn2ncnc2c1C` (stereo not drawn) [Example 507]: the IC50 against human TLR9 worked out at 8180 nM; at human TLR7, 3 nM; against human TLR8, 14 nM.

`COc1cc(-c2[nH]c3ccc(C4CC5CNCC5C4)cc3c2C(C)C)cn2ncnc12` (stereo not drawn) [Example 508]: the values for the IC50 on human TLR9, on human TLR7 and against human TLR8 were 1490 nM, 0.43 nM and 11 nM, respectively.

Consider `COc1cc(-c2[nH]c3ccc(C4CC5CN(CC(=O)N(C)C)CC5C4)cc3c2C(C)C)cn2ncnc12` (stereo not drawn) [Example 509], for which the IC50 was found to be 2340 nM at human TLR9, 0.27 nM against human TLR7 and 2.4 nM at human TLR8.

Consider `CNC(=O)CN1CC2CC(c3ccc4[nH]c(-c5cn6ncnc6c(C)c5C)c(C(C)C)c4c3)CC2C1` (stereo not drawn) [Example 510], for which the figures for the concentration for half-maximal inhibition (IC50) on human TLR9, on human TLR7 and against human TLR8 were 20700 nM, 2 nM and 12 nM, respectively.

Regarding `Cc1c(-c2[nH]c3ccc(C4CC5CN(CC(N)=O)CC5C4)cc3c2C(C)C)cn2ncnc2c1C` (stereo not drawn) [Example 511], the IC50 on human TLR9 was found to be 12300 nM; on human TLR7, 0.94 nM; against human TLR8, 6.1 nM.

For the compound `Cc1c(-c2[nH]c3ccc(C4CC5CN(CC#N)CC5C4)cc3c2C(C)C)cn2ncnc2c1C` (stereo not drawn) [Example 512], the IC50 on human TLR9 turned out to be 16300 nM; at human TLR7 it was 3 nM; at human TLR8, 15 nM.

Take `COc1cc(-c2[nH]c3ccc(C4CC5CN(C6COC6)CC5C4)cc3c2C(C)C)cn2ncnc12` (stereo not drawn) [Example 513]: the results for the IC50 at human TLR9, against human TLR7 and at human TLR8 were 12500 nM, 0.96 nM and 20 nM, respectively.

Regarding `Cc1c(-c2[nH]c3ccc(C4CC5CN(CCS(C)(=O)=O)CC5C4)cc3c2C(C)C)cn2ncnc2c1C` (stereo not drawn) [Example 514], the IC50 at human TLR9 came to 15700 nM; against human TLR7 it was 1 nM; against human TLR8, 18 nM.

On to `Cc1c(-c2[nH]c3ccc(C4CCC(N)CC4)cc3c2C(C)C)cn2cnnc2c1C` (stereo not drawn) [Example 515], for which the IC50 at human TLR9 was 1230 nM; against human TLR7 it was 6 nM; at human TLR8, 59 nM.

Turning to `Cc1c(-c2[nH]c3ccc(C4CCC(N)CC4)cc3c2C(C)C)cn2cnnc2c1C` (stereo not drawn) [Example 516], the figures for the IC50 against human TLR9, against human TLR7 and against human TLR8 were 707 nM, 3 nM and 13 nM, respectively.

`Cc1c(-c2[nH]c3ccc(C4CCC(NCC(=O)N(C)C)CC4)cc3c2C(C)C)cn2cnnc2c1C` (stereo not drawn) [Example 517]: the IC50 against human TLR9 came to 2460 nM; against human TLR7, 5 nM; on human TLR8, 42 nM.

In the case of `Cc1c(-c2[nH]c3ccc(C4CCC(NCC(=O)N(C)C)CC4)cc3c2C(C)C)cn2cnnc2c1C` (stereo not drawn) [Example 518], the IC50 at human TLR9 came out at 1310 nM; on human TLR7 it was 2 nM; against human TLR8, 16 nM.

In the case of `Cc1c(-c2[nH]c3ccc(C4CC5CNCC5C4)cc3c2C(C)C)cn2cnnc2c1C` (stereo not drawn) [Example 519], the figures for the IC50 at human TLR9, against human TLR7 and against human TLR8 were 2510 nM, 6 nM and 127 nM, respectively.

Consider `Cc1c(-c2[nH]c3ccc(C4CC5CN(CC(=O)N(C)C)CC5C4)cc3c2C(C)C)cn2cnnc2c1C` (stereo not drawn) [Example 520], for which the figures for the IC50 against human TLR9, on human TLR7 and on human TLR8 were 17700 nM, 29 nM and 66 nM, respectively.

Regarding `Cc1c(-c2[nH]c3ccc(C4CC5CN(C(=O)CN(C)C)CC5C4)cc3c2C(C)C)cn2cnnc2c1C` (stereo not drawn) [Example 521], the IC50 against human TLR9 was determined as 7020 nM; against human TLR7 it was 4 nM; at human TLR8 it was 37 nM.

On to `Cc1c(-c2[nH]c3ccc(C4CC5CN(C6COC6)CC5C4)cc3c2C(C)C)cn2cnnc2c1C` (stereo not drawn) [Example 522], for which the IC50 turned out to be 12700 nM at human TLR9, 9 nM on human TLR7 and 85 nM on human TLR8.
